Where “and” joins values, the source holds several entries; their conditions need not be identical. Equal entries are not always repeated. Inconclusive results and toxic doses are left out. Rule as the data show it: active = T/C of 150% or more; inactive = T/C below 125%.
Tested on: L1210 leukemia ip in BDF1 mice, survival T/C
Assay: NCI In Vivo Anticancer Drug Screen. Data for tumor model L1210 Leukemia (intraperitoneal) in B6D2F1 (BDF1) mice
Details: endpoint: mean survival time, higher = longer survival
In short: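 Tumor cells were implanted, animals were treated, and survival was followed. The result divides the treated measurement by the vehicle-control measurement.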

[1] = dose: 100.0 mg/kg/injection, schedule: Q04DX002 (ip), vehicle: Klucel (hydroxypropylcellulose) (HPC)
[2] = dose: 200.0 mg/kg/injection, schedule: Q04DX002 (ip), vehicle: Klucel (hydroxypropylcellulose) (HPC)
[3] = dose: 100.0 mg/kg/injection, schedule: Q04DX003 (ip), vehicle: saline
[4] = dose: 200.0 mg/kg/injection, schedule: Q04DX003 (ip), vehicle: saline
[5] = dose: 400.0 mg/kg/injection, schedule: Q04DX003 (ip), vehicle: saline
[6] = dose: 100.0 mg/kg/injection, schedule: Q01DX009 (ip), vehicle: saline
[7] = dose: 200.0 mg/kg/injection, schedule: Q01DX009 (ip), vehicle: saline
[8] = dose: 400.0 mg/kg/injection, schedule: Q01DX009 (ip), vehicle: saline
[9] = dose: 100.0 mg/kg/injection, schedule: Q01DX001 (ip), vehicle: saline
[10] = dose: 200.0 mg/kg/injection, schedule: Q01DX001 (ip), vehicle: saline
[11] = dose: 400.0 mg/kg/injection, schedule: Q01DX001 (ip), vehicle: saline
[12] = dose: 75.0 mg/kg/injection, schedule: Q01DX001 (ip), vehicle: saline
[13] = dose: 150.0 mg/kg/injection, schedule: Q01DX001 (ip), vehicle: saline
[14] = dose: 300.0 mg/kg/injection, schedule: Q01DX001 (ip), vehicle: saline

Measured: T/C

O=C(c1ccccc1)c1cc(-c2ccccc2)n(C2CCCCC2)c1
inactive: dose: 25.0 mg/kg/injection, schedule: Q01DX009 (ip), vehicle: saline with Tween-80 96 % of control and 120 % of control | dose: 50.0 mg/kg/injection, schedule: Q01DX009 (ip), vehicle: saline with Tween-80 94 % of control and 95 % of control and 98 % of control | dose: 200.0 mg/kg/injection, schedule: Q01DX009 (ip), vehicle: saline with Tween-80 91 % of control and 92 % of control

CC1=CC(C)(C)NC(=S)N1CCO
inactive: dose: 74.0 mg/kg/injection, schedule: Q01DX Z (ip), vehicle: methylcellulose (MC) 91 % of control | [1] 104 % of control | [2] 107 % of control

NNC(=O)c1ccc(Cl)cc1Nc1ccc(Cl)cc1
inactive: dose: 25.0 mg/kg/injection, schedule: Q01DX009 (ip), vehicle: Klucel (hydroxypropylcellulose) (HPC) 93 % of control | dose: 50.0 mg/kg/injection, schedule: Q01DX009 (ip), vehicle: Klucel (hydroxypropylcellulose) (HPC) 95 % of control | dose: 100.0 mg/kg/injection, schedule: Q01DX001 (ip), vehicle: Klucel (hydroxypropylcellulose) (HPC) 97 % of control | dose: 100.0 mg/kg/injection, schedule: Q01DX009 (ip), vehicle: Klucel (hydroxypropylcellulose) (HPC) 91 % of control

Cc1ccc(S(=O)(=O)N(CCCc2ccccc2)c2ccc(C(=O)NC(CCC(=O)O)C(=O)O)cc2)cc1 (stereo not drawn)
inactive: dose: 75.0 mg/kg/injection, schedule: Q01DX001 (ip), vehicle: gum acacia 101 % of control | dose: 150.0 mg/kg/injection, schedule: Q01DX001 (ip), vehicle: gum acacia 107 % of control | dose: 300.0 mg/kg/injection, schedule: Q01DX001 (ip), vehicle: gum acacia 93 % of control

O=C(O)Cc1ccccc1Cl
inactive: dose: 100.0 mg/kg/injection, schedule: Q01DX009 (ip), vehicle: gum acacia 100 % of control | dose: 200.0 mg/kg/injection, schedule: Q01DX009 (ip), vehicle: gum acacia 96 % of control

CCc1cc[c]([Hg][Cl])o1
inactive: dose: 12.5 mg/kg/injection, schedule: Q01DX001 (ip), vehicle: other 100 % of control | dose: 25.0 mg/kg/injection, schedule: Q01DX001 (ip), vehicle: other 100 % of control

CCCNC(=O)Oc1c(C)cccc1C
inactive: dose: 50.0 mg/kg/injection, schedule: Q01DX009 (ip), vehicle: carboxymethylcellulose (CMC) 105 % of control and 107 % of control | dose: 100.0 mg/kg/injection, schedule: Q01DX001 (ip), vehicle: other 95 % of control | dose: 100.0 mg/kg/injection, schedule: Q01DX009 (ip), vehicle: carboxymethylcellulose (CMC) 96 % of control | [1] 92 % of control | dose: 100.0 mg/kg/injection, schedule: Q04DX002 (ip), vehicle: carboxymethylcellulose (CMC) 103 % of control and 104 % of control | dose: 100.0 mg/kg/injection, schedule: Q04DX003 (ip), vehicle: other 103 % of control | dose: 200.0 mg/kg/injection, schedule: Q01DX001 (ip), vehicle: other 96 % of control | dose: 200.0 mg/kg/injection, schedule: Q01DX009 (ip), vehicle: carboxymethylcellulose (CMC) 103 % of control | [2] 103 % of control | dose: 200.0 mg/kg/injection, schedule: Q04DX002 (ip), vehicle: carboxymethylcellulose (CMC) 97 % of control and 88 % of control | dose: 200.0 mg/kg/injection, schedule: Q04DX003 (ip), vehicle: other 104 % of control | dose: 400.0 mg/kg/injection, schedule: Q01DX001 (ip), vehicle: other 102 % of control | dose: 400.0 mg/kg/injection, schedule: Q04DX003 (ip), vehicle: other 109 % of control

O=S(=O)(O)c1ccc(O)c2ncccc12
inactive: [3] 95 % of control | [4] 101 % of control | [5] 101 % of control

Cc1nn(-c2ccccc2)c(N)c1C#N
inactive: dose: 25.0 mg/kg/injection, schedule: Q01DX009 (ip), vehicle: saline 100 % of control | dose: 50.0 mg/kg/injection, schedule: Q01DX009 (ip), vehicle: saline 97 % of control | dose: 75.0 mg/kg/injection, schedule: Q01DX009 (ip), vehicle: saline 98 % of control | [6] 103 % of control and 121 % of control | dose: 150.0 mg/kg/injection, schedule: Q01DX009 (ip), vehicle: saline 103 % of control | [7] 106 % of control

CCN(CC)c1ccc(Cc2ccc3c(c2O)C(=O)c2c(O)cccc2C3=O)cc1
inactive: [6] 94 % of control | dose: 100.0 mg/kg/injection, schedule: Q04DX002 (ip), vehicle: saline 101 % of control | [7] 96 % of control | dose: 200.0 mg/kg/injection, schedule: Q04DX002 (ip), vehicle: saline 92 % of control | [8] 97 % of control | dose: 400.0 mg/kg/injection, schedule: Q04DX002 (ip), vehicle: saline 89 % of control

Cc1ccc(Br)cc1C(c1cc(Br)ccc1C)C(O)C(O)C(O)C(O)CO (stereo not drawn)
inactive: dose: 50.0 mg/kg/injection, schedule: Q01DX001 (ip), vehicle: saline 106 % of control | [9] 106 % of control | [10] 110 % of control | [11] 98 % of control

CC(C)CC(N)C(=O)NNc1ccccc1 (stereo not drawn)
inactive: [12] 101 % of control | [13] 103 % of control | [14] 108 % of control

NNc1ccccc1-c1nc(N)nc(N)n1
inactive: dose: 9.38 mg/kg/injection, schedule: Q01DX001 (ip), vehicle: other 109 % of control | dose: 18.75 mg/kg/injection, schedule: Q01DX001 (ip), vehicle: other 112 % of control | dose: 37.5 mg/kg/injection, schedule: Q01DX001 (ip), vehicle: other 118 % of control

O=C1C(=O)c2ccccc2C(O)=C1C(C1=C(O)c2ccccc2C(=O)C1=O)c1ccc(Cl)cc1
inactive: [12] 86 % of control | [13] 86 % of control | [14] 86 % of control

O=C1C=CC(=O)N1c1ccc(Cl)cc1
inactive: dose: 10.0 mg/kg/injection, schedule: Q01DX009 (ip), vehicle: Klucel (hydroxypropylcellulose) (HPC) 100 % of control | dose: 10.0 mg/kg/injection, schedule: Q04DX003 (ip), vehicle: other 97 % of control | dose: 20.0 mg/kg/injection, schedule: Q01DX009 (ip), vehicle: Klucel (hydroxypropylcellulose) (HPC) 88 % of control | dose: 20.0 mg/kg/injection, schedule: Q04DX003 (ip), vehicle: other 95 % of control | dose: 40.0 mg/kg/injection, schedule: Q04DX003 (ip), vehicle: other 95 % of control

O=[N+]([O-])c1ccc2c(c1)=N/C(=N\c1nc(O)c(O)[nH]1)N=2
inactive: dose: 100.0 mg/kg/injection, schedule: Q04DX003 (ip), vehicle: Klucel (hydroxypropylcellulose) (HPC) 101 % of control | dose: 200.0 mg/kg/injection, schedule: Q04DX003 (ip), vehicle: Klucel (hydroxypropylcellulose) (HPC) 98 % of control | dose: 400.0 mg/kg/injection, schedule: Q04DX003 (ip), vehicle: Klucel (hydroxypropylcellulose) (HPC) 104 % of control

CN(C)/C=C(/C#N)C(=O)N1CCCC1
inactive: [6] 106 % of control | [3] 101 % of control | [7] 102 % of control | [4] 101 % of control | [8] 112 % of control | [5] 117 % of control

COC1CCC(OC)(C(=O)NN)O1 (stereo not drawn)
inactive: [9] 95 % of control | [10] 95 % of control | [11] 102 % of control

CC(C)(C)SCCN1C(=O)C2C3CCC(O3)C2C1=O (stereo not drawn)
inactive: [1] 104 % of control | [2] 100 % of control | dose: 400.0 mg/kg/injection, schedule: Q04DX002 (ip), vehicle: Klucel (hydroxypropylcellulose) (HPC) 107 % of control
